Eleven compounds from ChEMBL document CHEMBL1201862, “PubChem BioAssay data set” (2004) can be followed below.

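The compound was tested at five concentrations on cells cultured in 96-well plates, with a 48-hour exposure period. GI50 = concentration required for 50% inhibition of growth.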 The source made the active and inactive calls. Cut-off read from the data, not from the text of the source: active = GI50 up to about 1.1 µM and inactive = higher.

What all share (assay): inhibition of tumour cell growth, NCI panel, 48 h
Assay [1] concerns K562.
Assay [2] has as its system ACHN.
Assay [3] concerns MOLT-4.
For assay [4], the system named is COLO 205.
For assay [5], the system named is MDA-MB-231.
Assay [6] concerns SK-OV-3.
The test system of assay [7] is RXF 393.
Assay [8] deals with HCT-116.
For assay [9], the system named is OVCAR-3.
Assay [10] deals with NCI-H23.
Assay [11] deals with HOP-92.
In assay [12] the test system is SR.
The subject of assay [13] is OVCAR-8.
In assay [14] the test system is T47D.
Assay [15] deals with NCI-H226.
Assay [16] concerns UO-31.
The test system of assay [17] is SNB-75.
The test system of assay [18] is CCRF-CEM.
Assay [19] relates to LOX IMVI.
The test system of assay [20] is HL-60.

As to `CCOC(=O)[C@@H]1C[C@H]1c1ccc(O)c(O)c1`, the GI50 in assay [1] is 10.9 µM (inactive); in assay [2], 65.2 µM (inactive); in assay [3] it was 18.5 µM (inactive); in assay [4], 57.8 µM (inactive); in assay [5] it was 23.2 µM (inactive); in assay [6], 43.1 µM (inactive). The GI50 is 26.6 µM (inactive) in assay [7]; 14.4 µM (inactive) in [8]; 29 µM (inactive) in assay [9]; 4.74 µM (inactive) in [10]; > 100 µM (inactive) in assay [11]; 45.3 µM (inactive) in assay [12]. The GI50 is 37.9 µM (inactive) in assay [13], 30.1 µM (inactive) in [14], 70.6 µM (inactive) in assay [15] and 31.3 µM (inactive) in assay [16].

Consider `C[Si](C)(C)CCOCN(C(=O)C1=CCC2(CC1)OCCO2)c1ccccc1I`, for which the GI50 was 17.7 µM (inactive) in [17]; 8.02 µM (inactive) in assay [1]; 22.6 µM (inactive) in assay [2]; 10.8 µM (inactive) in assay [3]; 37.4 µM (inactive) in assay [4]; 22.8 µM (inactive) in assay [5]. In addition, the GI50 in [6] is 16.8 µM (inactive); in [7], 17.5 µM (inactive); in [8], 14.1 µM (inactive); in assay [9], 21.6 µM (inactive); in [18], 25.4 µM (inactive); in assay [10], 18.6 µM (inactive). The GI50 is 0.121 µM (active) in [11]; 15.8 µM (inactive) in [12]; 32.5 µM (inactive) in [13]; 12.8 µM (inactive) in assay [14]; 29 µM (inactive) in [19]; 22.9 µM (inactive) in assay [15]. Further, the GI50 in [16] is 19.4 µM (inactive).

For the compound `Cc1cccc(-c2cccc(COCc3cccc(-c4cccc(CO)n4)n3)n2)n1`, the GI50 in assay [17] is > 50 µM (inactive); in [1], > 50 µM (inactive); in [2], > 50 µM (inactive); in assay [20], 8.28 µM (inactive); in assay [3], 4.41 µM (inactive); in assay [4], 4.11 µM (inactive). In addition, the GI50 in assay [5] is 24.2 µM (inactive); in assay [6] it was > 50 µM (inactive); in assay [8], > 50 µM (inactive); in [9] it was 3.7 µM (inactive); in assay [11] it was 47.2 µM (inactive); in [12], > 50 µM (inactive). For the same compound, the GI50 in [13] is 16.2 µM (inactive); in assay [14] it was 31.2 µM (inactive); in assay [19], > 50 µM (inactive); in [15], > 50 µM (inactive); in assay [16] it was > 50 µM (inactive).

Take `C(/C=N/N=C1NCCCN1)=N\N=C1NCCCN1`: the GI50 in [17], in assay [1], in assay [2], in assay [3], in assay [4] and in assay [5] was > 100 µM (inactive) each time. For the same compound, the GI50 is > 100 µM (inactive) in assay [6]; > 100 µM (inactive) in assay [8]; > 100 µM (inactive) in assay [9]; > 100 µM (inactive) in assay [18]; > 100 µM (inactive) in assay [10]; 56.5 µM (inactive) in assay [11]. Further, the GI50 in assay [12], in [13], in assay [14], in assay [19], in assay [15] and in assay [16] was > 100 µM (inactive) each time.

On to `COc1ccccc1N1C(=O)/C(=C\c2ccccc2)SC1c1cc(OC)c(OC)c(OC)c1` (configuration not stated), for which the GI50 in assay [1] was 41.7 µM (inactive); in [2] it was 74.1 µM (inactive); in [3], 35 µM (inactive); in assay [4], 35.9 µM (inactive); in assay [5], 23.2 µM (inactive); in assay [6], 42.3 µM (inactive). The GI50 is 31.8 µM (inactive) in [8]; 43.9 µM (inactive) in [10]; 34.5 µM (inactive) in [11]; 33.7 µM (inactive) in assay [12]; 42 µM (inactive) in [13]; 5.97 µM (inactive) in assay [14]. The GI50 is 21.9 µM (inactive) in [19], > 100 µM (inactive) in assay [15] and 45.4 µM (inactive) in [16].

As to `O=C(COc1ccccc1)N(C(=O)N1CCN(c2ccccc2)CC1)S(=O)(=O)c1ccccc1`, the GI50 in assay [17] is 33.9 µM (inactive); in assay [1], 33.8 µM (inactive); in assay [2], > 100 µM (inactive); in assay [20], 83.4 µM (inactive); in assay [3] it was 25.4 µM (inactive); in [4] it was > 100 µM (inactive). For the same compound, the GI50 in [5] was 52 µM (inactive); in assay [6], > 100 µM (inactive); in [8], 44 µM (inactive); in [9] it was 62.4 µM (inactive); in assay [18] it was 22.1 µM (inactive); in assay [10], > 100 µM (inactive). The GI50 in assay [11] was > 100 µM (inactive); in assay [12] it was 21.7 µM (inactive); in assay [13], 35.2 µM (inactive); in [14], 34.8 µM (inactive); in assay [19], 77.4 µM (inactive); in assay [15], 57.4 µM (inactive). In addition, the GI50 in [16] is 94.6 µM (inactive).

On to `C/C(=N\N=C(\N)SB(F)F)c1ccc2ccccc2c1`, for which the GI50 in assay [17], in assay [1], in assay [2], in [4], in [5] and in assay [6] was > 100 µM (inactive) each time. The GI50 was 62.8 µM (inactive) in [7]; > 100 µM (inactive) in assay [8]; 4.37 µM (inactive) in [18]; > 100 µM (inactive) in assay [10]; > 100 µM (inactive) in assay [11]; 54.5 µM (inactive) in [12]. The GI50 in assay [13] is > 100 µM (inactive); in [14] it was > 100 µM (inactive); in assay [19], 56.4 µM (inactive); in assay [15] it was > 100 µM (inactive); in assay [16] it was > 100 µM (inactive).

On to `Cc1nc2ccccc2n1COC(Cn1ccnc1)c1ccc(Cl)cc1Cl` (configuration not stated), for which the GI50 in [17] was 53.6 µM (inactive); in assay [1] it was 42.8 µM (inactive); in [2], 34.8 µM (inactive); in assay [20], 30.5 µM (inactive); in assay [3], 30.1 µM (inactive); in assay [4], 39.3 µM (inactive). Besides, the GI50 in assay [5] was > 100 µM (inactive); in assay [8] it was 53.7 µM (inactive); in assay [9] it was 41.4 µM (inactive); in assay [18] it was 88.9 µM (inactive); in assay [10], 55.8 µM (inactive); in [11], 23.3 µM (inactive). Further, the GI50 in assay [12] was 60.3 µM (inactive); in assay [13], 94 µM (inactive); in [14] it was 41.7 µM (inactive); in assay [19] it was 50.8 µM (inactive); in [16], 25.6 µM (inactive).

For `C=CCC(C(=O)Nc1cccc2nc[nH]c12)C(=O)OCC` (configuration not stated), the GI50 in assay [17] is > 100 µM (inactive); in assay [1], > 100 µM (inactive); in [2] it was > 100 µM (inactive); in assay [20], 33.2 µM (inactive); in [3], > 100 µM (inactive); in [5], > 100 µM (inactive). For the same compound, the GI50 in assay [6], in assay [8], in assay [9], in assay [11], in [12] and in assay [13] was > 100 µM (inactive) in each case. Moreover, the GI50 in assay [14], in assay [19], in assay [15] and in assay [16] was > 100 µM (inactive) each time.

On to `Nc1ccccc1C(=O)CC1OC(=O)c2ccccc21` (configuration not stated), for which the GI50 in [17] was 23 µM (inactive); in assay [1] it was > 100 µM (inactive); in assay [2], > 100 µM (inactive); in assay [20], > 100 µM (inactive); in assay [3], > 100 µM (inactive); in assay [5], > 100 µM (inactive). The GI50 in assay [6] is > 100 µM (inactive); in [8] it was 51.6 µM (inactive); in assay [9] it was 78.3 µM (inactive); in [11] it was > 100 µM (inactive); in [12], 46.5 µM (inactive); in [13], 51.5 µM (inactive). Also, the GI50 in assay [14] was 81.8 µM (inactive); in assay [19] it was 52.8 µM (inactive); in assay [15] it was > 100 µM (inactive); in assay [16], > 100 µM (inactive).

As for `COc1cc2c(cc1OCCCCOc1cc3c(cc1OC)C(=O)N1CCC[C@H]1C(=O)N3)N=C[C@@H]1CCCN1C2=O`, the GI50 in assay [17] is 4.12 µM (inactive); in assay [1], 2.28 µM (inactive); in assay [2] it was 14.7 µM (inactive); in assay [20] it was 9.18 µM (inactive); in [3], 2.27 µM (inactive); in [4], 2.55 µM (inactive). The GI50 in assay [5] was 3.11 µM (inactive); in [7] it was 3.59 µM (inactive); in assay [8], 16.8 µM (inactive); in assay [9] it was 11.5 µM (inactive); in assay [10] it was 12.8 µM (inactive); in assay [12] it was 2.17 µM (inactive). Also, the GI50 in assay [13] is 14.7 µM (inactive); in [14], 5.52 µM (inactive); in assay [19] it was 1.99 µM (inactive); in [15] it was 13.5 µM (inactive); in assay [16] it was 14.8 µM (inactive).
